Assay results from patent publication US6048892A, “Ester compound pesticide containing thereof” (Sumitomo Chemical Company, Limited, priority 1999, dated 2000).

Key:
[1] = system: webbing clothes moth (Tineola bisselliella); assay: Biological Test 12: topical application to larvae of webbing clothes moth, mortality and fabric damage; format: in vivo; details: for degree of damage of the wool muslin fabric: 3 μg/insect, after 7 days; for mortality at 0.003 mg: Tineola bisselliella, 168 h
Procedure: Each of the present compounds diluted with acetone to a predetermined concentration was applied to ten middle instar larvae of webbing clothes moth (Tineola bisselliella) at the central part of the back so as to give the active ingredient in a dose of 3 μg/insect. A wool muslin fabric (2 cm×2 cm in size) was given to the webbing clothes moths as the food. After 7 days, the mortality and the degree of damage of the wool muslin fabric by the moths were examined (two replicate).

[2] = system: common mosquitoes (Culex pipiens pallens); assay: Biological Test 8: knock-down of mosquitoes by mosquito-coil; format: in vivo; details: 1.0 g of 0.3% mosquito-coil in 0.34 m^3 chamber; after 15 minutes
Procedure: Mosquito-coil containing the present compound in an amount of 0.3% was prepared according to the formulation example 10 for the present compounds. Ten female common mosquitoes (Culex pipiens pallens) were left in a glass chamber (70 cm×70 cm×70 cm: 0.34 m^3) and 1.0 g of 0.3% mosquito-coil having both ends lit was placed in the glass chamber. After 15 minutes, the rate of knocked-down mosquitoes was examined.

[3] = system: common mosquitoes (Culex pipiens pallens); assay: Biological Test 7: knock-down of mosquitoes by sprayed oil solution; format: in vivo; details: 0.7 ml of 0.1% oil solution sprayed in 0.34 m^3 chamber; after 15 minutes
Procedure: Ten female common mosquitoes (Culex pipiens pallens) were left in a glass chamber (70 cm×70 cm×70 cm: 0.34 m^3). 0.7 ml of 0.1% oil solution prepared for each of the present compounds according to the formulation example 7 was sprayed with a spray gun at 0.8 atmospheric pressure. After 15 minutes, the rate of knocked-down mosquitoes was examined.

[4] = system: webbing clothes moth (Tineola bisselliella); assay: Biological Test 13: volatile agent in cup, mortality and fabric damage; format: in vivo; details: volatile agent (100 μg on filter paper), 950 cm^3 cup, 25° C., 1 week; for mortality: 10080 min
Procedure: A wool muslin fabric (2 cm×2 cm in size) was placed on the bottom of a polyethylene cup (bottom diameter: 10 cm, opening part diameter: 12.5 cm, height: 9.5 cm, volume: 950 cm^3). Ten middle instar larvae of webbing clothes moth (Tineola bisselliella) were put in the cup and each of the volatile agents prepared according to the formulation example 14 was hung from the cap in the interior of the cup. After standing at 25° C. for 1 week, the cup was opened, and the mortality and the degree of damage of the wool muslin fabric by the moths were examined (two replicate).

[5] = system: common mosquitoes (Culex pipiens pallens); assay: Biological Test 11: mosquitoes in cup over treated aluminum plate without direct contact, mortality; format: in vivo; details: 24 h
Procedure: After 0.64 ml of a 0.05 (w/v) % acetone solution of the present compounds was dropped into an aluminum plate (bottom diameter: 7 cm), acetone was air-dried. Ten female common mosquitoes (Culex pipiens pallens) were left in a polyethylene cup (diameter: 9 cm; depth: 4.5 cm) and the cup was sealed with a 16-mesh nylon net to prevent direct contact of the mosquitoes with the compound. The cup was placed upside down on the aluminum plate at 25° C. for 120 minutes. The cup was then removed from the aluminum plate, and water and feed were given to the mosquitoes. After 24 hours, the mortality was examined (two replicate).

[6] = system: southern corn rootworm (Diabrotica undecimpunctata howardi); assay: Biological Test 3: mortality of hatched larvae and eggs; format: in vivo; details: 192 h, read-out: mortality of the hatched larvae and eggs
From the text: Filter paper of 5.5 cm in diameter was laid in the bottom of a polyethylene cup (diameter: 5.5 cm). […] After 8 days, the mortality of the hatched larvae and eggs was examined.

[7] = system: brown planthopper (Nilaparvata lugens); assay: Biological Test 2: mortality of larvae on dipped rice plant stalk; format: in vivo; details: 144 h, read-out: mortality of the larvae
Procedure: A stalk of a rice plant was dipped for one minute in a 500 ppm aqueous emulsion obtained by diluting each emulsifiable concentrate of the present compounds prepared according to the formulation example 1. The rice plant stalk was air-dried and placed in a polyethylene cup (diameter: 5.5 cm) where filter paper (diameter: 5.5 cm) impregnated with 1 ml of water was put. Approximately 30 larvae of brown planthopper (Nilaparvata lugens) were put in the polyethylene cup. After 6 days, the mortality of the larvae was examined.

[8] = system: houseflies (Musca domestica); assay: Biological Test 17: topical application of compound (2) with piperonyl butoxide, mortality; format: in vivo; details: after 24 hours
Procedure: The combination rate of piperonyl butoxide to the present compound was 0, 2, 4, 8 and 16 times. The mixture was dissolved in acetone. The acetone solution (0.5 μL) was applied to 10 female houseflies (Musca domestica) at the back thoracic region. After 24 hours, the number of dead insects was observed (2 repetition) and mortality was calculated.

[9] = system: houseflies (Musca domestica); assay: Biological Test 4: mortality of female houseflies low sensitive to pyrethroids, treated filter paper; format: in vivo; details: 24 h
Procedure: (§1) Filter paper of 5.5 cm in diameter was laid in the bottom of a polyethylene cup (diameter: 5.5 cm). After 0.7 ml of a 500 ppm aqueous emulsion obtained by diluting each emulsifiable concentrate prepared according to the formulation example 1 was dropped on the filter paper and approximately 30 mg of sucrose as bait was uniformly scattered. Ten female houseflies (Musca domestica), which were low sensitive to pyrethroids, were left in the cup with a cover. After one day, the mortality was examined.

[10] = system: German cockroaches (Blattella germanica); assay: Biological Test 5: mortality of male German cockroaches low sensitive to pyrethroids, treated filter paper; format: in vivo; details: 144 h
Procedure: as §1, with “Two male German cockroaches (Blattella germanica),” for “Ten female houseflies (Musca domestica),”, “six days,” for “one day,”

[11] = system: common mosquitoes (Culex pipiens pallens); assay: Biological Test 6: mortality of last-instar mosquito larvae in water; format: in vivo; details: 24 h, read-out: mortality of the common mosquitoes
Procedure: 0.7 ml of aqueous emulsion, obtained by diluting emulsifiable concentrate prepared for each of the present compounds according to the formulation example 1, was added to 100 ml of ion-exchanged water (concentration of active ingredient: 3.5 ppm). Twenty last-instar larvae of common mosquitoes (Culex pipiens pallens) were left in the water. After one day, the mortality of the common mosquitoes was examined.

[12] = system: webbing clothes moth (Tineola bisselliella); assay: Biological Test 14: treated filter paper in cardboard box, percent moribund, fabric damage and persistence; format: in vivo; details: 36 mg on filter paper
Procedure: A filter paper (3.2 cm×3.2 cm in size) treated with 36 mg of each of the present compounds and two wool muslin fabrics (25 cm×25 cm in size) were hung down at the upper part of a corrugated cardboard box (29 cm×29 cm×29 cm in size). After standing at 25° C. and a humidity of 60% for 1 week, two tea-strainer balls holding 7 to 10 middle instar larvae of webbing clothes moth (Tineola bisselliella) and one piece of wool muslin cloth (2 cm×2 cm in size) were hung down at the upper part of the box. The box was closed with a lid. After one week, the box was opened, and the percent moribund and the degree of damage of the wool muslin cloth by the moths were examined. The same tests was repeated 2 weeks, 3 weeks and 5 weeks after the treatment to examine the persistance of the present compound. The degree of damage was represented by "-" in no damage, "+" in slight damage, "++" in heavy damage and "+++" in severe damage.

[13] = system: tobacco cutworm (Spodoptera litura); assay: Biological Test 1: mortality of larvae on impregnated artificial bait; format: in vivo; details: 144 h, read-out: mortality of the larvae
Procedure: Emulsifiable concentrates were prepared for each of the present compounds according to the formulation example 1. Thirteen grams of artificial bait for tobacco cutworm (Spodoptera litura) were placed in a polyethylene cup (diameter: 11 cm) and impregnated with 2 ml of the 500 ppm emulsion prepared by diluting the emulsifiable concentrates with water. Ten 4-instar larvae of Spodoptera litura were put in the polyethylene cup. After 6 days, the mortality of the larvae was examined.

[14] = Toxicity Test: acute oral LD50; details: rat, in vivo, corn oil, fasted male 7-week old rats, after 7 days
Procedure: After subjecting the rats to a twenty-hour fasting, 0.1 ml of the diluted solution per 10 g weight was forcibly applied into the stomach of four male 7-week old rats. The rats were given food and water four hours after the application and thereafter regularly fed and watered, and kept in a cage. After 7 days, the mortality was examined for the rats and LD50 was calculated.

## CCc1ccc(COC(=O)[C@@H]2[C@H](/C=C(\Cl)C(F)(F)F)C2(C)C)o1 (relative stereo) [(2), 5-ethyl-2-furfuryl (1RS,cis)-3-(Z-2-chloro-3,3,3-trifluoroprop-1-enyl)-2,2-dimethyl-cyclopropanecarboxylate]
[1]
  degree of damage of the wool muslin fabric: no damage
  mortality at 0.003 mg: 100%
[2]
  rate of knocked-down mosquitoes: 100%
[3]
  rate of knocked-down mosquitoes: ≥ 90%
[4]
  degree of damage of the wool muslin fabric: no damage
  mortality: 100%
[5]
  mortality at 500 µg/mL: 100%
[6]
  mortality at 50 ppm: 100%
[7]
  mortality at 500 ppm: ≥ 90%
[8]; compound (2) 0.2 μg/female, piperonyl butoxide 0
  Mortality (%): 30%
[8]; compound (2) 0.2 + piperonyl butoxide 0.4 μg/female
  Mortality (%): 85%
[8]; compound (2) 0.2 + piperonyl butoxide 0.8 μg/female
  Mortality (%): 100%
[8]; compound (2) 0.2 + piperonyl butoxide 1.6 μg/female
  Mortality (%): 100%
[8]; compound (2) 0.2 + piperonyl butoxide 3.2 μg/female
  Mortality (%): 100%
[9]
  mortality at 500 ppm: 100%
[10]
  mortality at 500 ppm: 100%
[11]
  mortality at 3.5 ppm: ≥ 90%
[12]; After 1 week
  degree of damage: -
[12]; After 2 weeks
  degree of damage: -
[12]; After 3 weeks
  degree of damage: -
[12]; After 5 weeks
  degree of damage: -
[13]
  mortality at 500 µg/mL: 100%

## CCCc1ccc(COC(=O)[C@@H]2[C@H](/C=C(\Cl)C(F)(F)F)C2(C)C)o1 (relative stereo) [(3), 5-propyl-2-furfuryl (1RS,cis)-3-(Z-2-chloro-3,3,3-trifluoroprop-1-enyl)-2,2-dimethylcyclopropanecarboxylate]
[1]
  degree of damage of the wool muslin fabric: no damage
  mortality at 0.003 mg: 100%
[2]
  rate of knocked-down mosquitoes: 100%
[3]
  rate of knocked-down mosquitoes: ≥ 90%
[4]
  degree of damage of the wool muslin fabric: no damage
  mortality: 100%
[5]
  mortality at 500 µg/mL: 100%
[6]
  mortality at 50 ppm: 100%
[7]
  mortality at 500 ppm: ≥ 90%
[9]
  mortality at 500 ppm: 100%
[10]
  mortality at 500 ppm: 100%
[11]
  mortality at 3.5 ppm: ≥ 90%
[12]; After 1 week
  degree of damage: -
[12]; After 2 weeks
  degree of damage: -
[12]; After 3 weeks
  degree of damage: -
[12]; After 5 weeks
  degree of damage: -
[13]
  mortality at 500 µg/mL: 100%

## C=CCc1ccc(COC(=O)[C@@H]2[C@H](/C=C(\Cl)C(F)(F)F)C2(C)C)o1 (relative stereo) [(4), 5-allyl-2-furfuryl (1RS,cis)-3-(Z-2-chloro-3,3,3-trifluoroprop-1-enyl)-2,2-dimethylcyclopropanecarboxylate]
[1]
  degree of damage of the wool muslin fabric: no damage
  mortality at 0.003 mg: 100%
[2]
  rate of knocked-down mosquitoes: 100%
[3]
  rate of knocked-down mosquitoes: ≥ 90%
[4]
  degree of damage of the wool muslin fabric: no damage
  mortality: 100%
[5]
  mortality at 500 µg/mL: 100%
[6]
  mortality at 50 ppm: 100%
[7]
  mortality at 500 ppm: ≥ 90%
[9]
  mortality at 500 ppm: 100%
[10]
  mortality at 500 ppm: 100%
[11]
  mortality at 3.5 ppm: ≥ 90%
[12]; After 1 week
  degree of damage: -
[12]; After 2 weeks
  degree of damage: -
[12]; After 3 weeks
  degree of damage: -
[12]; After 5 weeks
  degree of damage: -
[13]
  mortality at 500 µg/mL: 100%

## CC1(C)C(/C=C(\Cl)C(F)(F)F)C1C(=O)OCc1coc(Cc2ccccc2)c1 (stereo not shown) [A, reference compound]
[14]
  LD50 at 168 h: < 50 mg/kg
[12]; After 1 week
  degree of damage: +++
[12]; After 2 weeks
  degree of damage: +++
[12]; After 3 weeks
  degree of damage: +++
[12]; After 5 weeks
  degree of damage: +++

## CC1(C)C(/C=C(\Cl)C(F)(F)F)C1C(=O)OCc1ccc(C(F)F)o1 (stereo not shown) [B, reference compound]
[12]; After 1 week
  degree of damage: +++
[12]; After 2 weeks
  degree of damage: +++
[12]; After 3 weeks
  degree of damage: +++
[12]; After 5 weeks
  degree of damage: +++

## C#CCc1ccc(COC(=O)C2C(/C=C(\Cl)C(F)(F)F)C2(C)C)o1 (stereo not shown) [C, reference compound]
[14]
  LD50 at 168 h: < 100 mg/kg
[12]; After 1 week
  degree of damage: +++
[12]; After 2 weeks
  degree of damage: +++
[12]; After 3 weeks
  degree of damage: +++
[12]; After 5 weeks
  degree of damage: +++
